According to patent US4578400A, “Therapeutic composition and method for treatment of cardiovascular diseases” (priority 1982, dated 1986):

Assays:
[1] = system: chloroform-induced arrhythmia (ventricular fibrillation); test: Effect on chloroform-induced arrhythmia; format: in vivo, male ddy mice; settings: for Percent occurrence of ventricular fibrillation: 15 min before chloroform, control 100
From the text: When they stopped breathing, they were thoracotomized to examine the occurrence of ventricular fribrillation. The results are noted in Table 2 as percent occurrence of ventricular fibrillation.

[2] = system: ouabain induced arrhythmia; test: Effect on ouabain induced arrhythmia; format: in vivo, male hartley guinea pigs; settings: for relative time for extrasystole to occur / relative time for cardiac arrest to occur / relative time for ventricular fibrillation to occur: control = 100
From the text: Effect on ouabain induced arrhythmia
The procedure described in Matsubara et al. (Folia Pharmacologica Japonica, 72, 557-571, 1976) was followed.
Male hartley guinea pigs were divided into groups of 8 animals and anesthetized with intraperitoneal urethane. Three groups were orally administered 5--HDA--Na, 5--HDAE and 5--HDA--DHP dissolved in distilled water. Another group was intravenously injected with 5--HDA--Na dissolved in physiological saline. One group was orally administered δ-DL emulsified in 5% aqueous arabic gum solution. One group was injected intravenously with lidocaine dissolved in physiological saline. For the respective routes of administration, control groups were administered the solvents used in administration of the test compounds. Thirty minutes after the oral administration and one minute after the intravenous injection, ouabain was infused into the jugular vein at a rate of 5 μg/kg/min until extrasystole, ventricular fibrillation and cardiac arrest appeared on a standard limb lead II of ECG. The results are shown in Table 3, with the time necessary for the respective symptoms to occur in the control groups taken as 100.

[3] = target: T1, 3-hydroxy-3-methylglutaryl coenzyme A (HMG-Co A) reductase (Rattus norvegicus, UniProt P51639); test: Inhibition of HMG-CoA reductase activity; format: biochemical, rat (liver microsome); settings: read-out: IC30 (amount necessary for inhibiting the enzymatic activity by 30%)
T1 sequence (P51639 1-887): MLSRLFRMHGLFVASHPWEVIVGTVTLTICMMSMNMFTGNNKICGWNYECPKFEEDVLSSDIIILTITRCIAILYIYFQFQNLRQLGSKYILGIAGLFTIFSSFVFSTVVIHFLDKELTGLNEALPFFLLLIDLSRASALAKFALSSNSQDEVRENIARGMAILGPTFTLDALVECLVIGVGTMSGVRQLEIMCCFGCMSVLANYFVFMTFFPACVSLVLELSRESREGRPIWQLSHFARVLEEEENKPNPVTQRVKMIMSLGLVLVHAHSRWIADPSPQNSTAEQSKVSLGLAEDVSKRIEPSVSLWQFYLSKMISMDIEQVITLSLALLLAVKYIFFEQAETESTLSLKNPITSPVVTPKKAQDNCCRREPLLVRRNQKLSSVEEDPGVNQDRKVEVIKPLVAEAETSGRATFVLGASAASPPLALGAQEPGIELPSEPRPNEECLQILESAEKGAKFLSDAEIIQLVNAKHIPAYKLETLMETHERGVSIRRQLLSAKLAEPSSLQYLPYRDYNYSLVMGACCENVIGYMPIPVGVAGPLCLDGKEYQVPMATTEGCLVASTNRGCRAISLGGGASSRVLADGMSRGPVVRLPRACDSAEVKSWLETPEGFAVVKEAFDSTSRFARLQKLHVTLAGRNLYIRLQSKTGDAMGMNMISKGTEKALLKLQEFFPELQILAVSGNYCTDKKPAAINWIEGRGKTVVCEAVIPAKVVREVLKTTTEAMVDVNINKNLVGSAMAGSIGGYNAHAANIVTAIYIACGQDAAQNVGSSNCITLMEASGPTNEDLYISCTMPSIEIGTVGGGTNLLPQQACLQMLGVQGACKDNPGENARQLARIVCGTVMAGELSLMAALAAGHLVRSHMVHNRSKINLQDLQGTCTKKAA
From the text: Inhibition of the activity of 3-hydroxy-3-methylglutaryl coenzyme A (HMG-Co A) reductase

[4] = Lowering serum lipid levels in Triton-induced hyperlipidemic rats; format: in vivo, male Wistar rats
Method: After 10 hours, blood samples were drawn to determine the serum levels of total cholesterol and triglyceride.

[5] = Lowering serum cholesterol levels in hyperlipidemic rabbits; format: in vivo, male Japanese white rabbits; settings: 100 mg/kg oral daily for 7 days
From the text: Male Japanese white rabbits weighing about 2.5 kg were fed on a solid diet containing 1% cholesterol (RC-4, Nippon Crea Co., Ltd.) for 10 weeks until hypercholesterolemia fully developed. The rabbits were then divided into groups of 5 animals, and 5--HDA--Na or δ-DL was orally admininistered daily for 7 days, either as a solution or as an emulsion in 5% aqueous arabic gum. Three hours after the last administration, blood was drawn to determine the serum level of cholesterol.

[6] = system: myocardial mitochondria; test: Inhibition of the decrease in respiratory capacity of myocardial mitochondria; format: biochemical, male Wistar rats; settings: for ATP production rate: normal 515, defective 204, *P < 0.05
Method: Inhibition of the decrease in respiratory capacity of myocardial mitochondria
According to the method of Hagiwara (Biochem. Biophys. Acta, 46, 134-142, 1961), mitochondria fractions were prepared from the myocardium isolated from male Wistar rats weighing about 300 g. The respiratory capacity of the mitochondria was measured by polarography with an oxygen electrode (TA-100, Yanagimoto), with sodium glutamate and ADP being successively added to give final concentrations of 50 mM and 4 mM, respectively. Defective mitochondria were prepared by leaviang the mitochondria fractions at 0° C. for 24 hours, and 5--HDA--Na was added to determine its ability to inhibit the decrease in the respiratory capacity of the myocardial mitochondria, which is proportional to the rate of ATP production.

[7] = Acute toxicity; settings: one week observation
From the text: Male ddy mice weighing about 25 g were divided into groups of 10 animals and orally administered once with 3 g/kg of 5--HDA, 5--HDA--Na, 5--HDAE, 5--HDA--DHP or δ-DL, or intraperitoneally injected once with 1 g/kg of said compounds.

[8] = Solubility (physicochemical properties, Table 1)
[9] = 100 mg/kg oral, four times, against control, 10 hours after Triton WR-1339, *P < 0.05

## CCCCCC(O)CCCC(=O)[O-].[Na+] (stereo not drawn)
[1]; 50 mg/kg, oral
  Percent occurrence of ventricular fibrillation: 50
[1]; 100 mg/kg oral vs lidocaine 10 mg/kg i.p.
  anti-arrhythmic potency compared with lidocaine (in words): more potent than lidocaine
[1]; 100 mg/kg, oral
  anti-arrhythmic effects (in words): significant anti-arrhythmic effects
[1]; 100 mg/kg, oral, *P < 0.05
  Percent occurrence of ventricular fibrillation: 30
[2]; i.v., 20 mg/kg
  relative time for extrasystole to occur: 146
[2]; i.v., 20 mg/kg, *P < 0.05
  relative time for cardiac arrest to occur: 132
  relative time for ventricular fibrillation to occur: 140
[2]; oral, 50 mg/kg
  relative time for extrasystole to occur: 118
[2]; oral, 50 mg/kg, *P < 0.05
  relative time for cardiac arrest to occur: 134
  relative time for ventricular fibrillation to occur: 126
[2]; oral, 100 mg/kg
  relative time for extrasystole to occur: 160
[2]; oral, 100 mg/kg, *P < 0.05
  relative time for ventricular fibrillation to occur: 144
[2]; oral, 100 mg/kg, *P < 0.05 where starred
  relative time for cardiac arrest to occur: 136
[2]; ouabain induced arrhythmia
  antiarrhythmic effects (in words): significant antiarrhythmic effects
[3]
  IC30: 100 µM
[4]; [9]
  inhibition rate, total cholesterol (serum): 20%
  inhibition rate, triglyceride (serum): 15%
[4]; 100 mg/kg, oral
  antilipidemic effects compared with Clofibrate (in words): equipotent to or stronger than the effect of the known anti-lipidemic agent, Clofibrate
[5]
  serum level of total cholesterol (in words): lowered the serum level of total cholesterol
[5]; 3 h after last administration, control 1,394, *P < 0.05
  Total serum cholesterol: 1,165 mg/dl
[6]; defective mitochondria
  decrease in ATP production in defective mitochondria (in words): significantly inhibited
[6]; defective mitochondria + 10^-4 M
  ATP production rate: 265 mM/mg-protein/min
[6]; defective mitochondria + 10^-5 M
  ATP production rate: 220 mM/mg-protein/min
[7]; 1 g/kg intraperitoneal once
  acute toxicity: abnormality: no abnormality occurred
  acute toxicity: death: no animal died
[7]; 3 g/kg oral once
  acute toxicity: abnormality: no abnormality occurred
  acute toxicity: death: no animal died
[8]; acetone
  solubility in acetone: easily soluble
[8]; benzene
  solubility in benzene: sparingly
[8]; chloroform
  solubility in chloroform: sparingly
[8]; hexane
  solubility in hexane: sparingly
[8]; methanol
  solubility in methanol: easily soluble
[8]; water
  solubility in water: easily soluble
